In series [1] the target is T1, integrin CD11b/CD18 (K562 CD11b/CD18 cells) (Homo sapiens, UniProt P05107+P11215).
T1 construct: host or cells: K562 cells stably transfected with wild-type CD11b/CD18
In words: K562 cell adhesion assay with immobilized ligands. Type of series: cell-based. The conditions noted are these: cell-based adhesion assay, K562 cells, 30 min at 37° C. The text has this: (§1) Cell Lines. K562 cells (ATCC) stably transfected with wild-type integrin CD11b/CD18 (K562 CD11b/CD18) have been described previously (Park, etal. J Biomol Screen, 2007. 12(3): 406; Gupta, et al., Blood, 2007. 109(8): 3513; incorporated herein by reference in their entirety). Mutant CD11bE320A has been described previously (Alonso, et al. Curr Biol, 2002. 12(10): R340; incorporated herein by reference in its entirety). K562 cells stably transfected with mutant integrin CD11bE320A/CD18 (K562 E320A) were generated according to literature protocols (Park, supra; Gupta, supra). All cell lines were maintained in Iscove's Modified Dulbecco's Medium (IMDM) supplemented with 10% heat-inactivated fetal bovine serum, 50 IU/ml penicillin and streptomycin and 0.5 mg/ml G418.
(§2) K562 Cell Adhesion Assay. Cell adhesion assays with immobilized ligands were performed as previously described (Park, supra). Assays with all different K562 cell lines (K562, K562 CD11b/CD18 and K562 E320A) were performed in an identical fashion. Briefly, 384-well Highbind microtiter plates were coated with a 30 μL solution of ligand in Phosphate Buffered Saline, pH 7.4 containing 1 mM each of Ca^2+ and Mg^2+ ions (PBS^++) overnight at 4° C. Ligand Fg was coated at a concentration of 5-15 μg/mL and iC3b at 1-5 μg/mL. Heterodimer specific mAb IB4 was coated at 1-20 μg/mL. Subsequently, the non-specific sites in the wells were blocked by incubation with 1% non-fat milk in Tris Buffered Saline (TBS), pH 7.4, at room temperature for 1 h. Next, the wells were washed three times with TBS. K562 cells were suspended in the assay buffer (TBS containing 1 mM each of Ca^2+ and Mg^2+ ions (TBS^++)) and were transferred to the ligand-coated wells (30,000 cells/well). Stock solutions of the integrin agonists were prepared by dissolving the compounds in DMSO at a concentration of 2-10 mM. Final concentration of DMSO in the assay was approximately 1-2%. K562 cells were incubated in the presence of increasing concentration of integrin agonist for 30 min at 37° C. To dislodge non-adherent cells, the assay plates were gently inverted and kept in the inverted position for 30 min at room temperature. Cells remaining adherent were fixed using formaldehyde and were quantitated using imaging microscopy, as previously described (Park, supra).

Series [2] can be described thus: Pharmacokinetic properties after PO/IV cassette dosing. Type of series: in vivo, Balb/C mice. Particulars: mouse, plasma; for Vd: read-out: Vdss; for bioavailability: head prints Rat, method Balb/C mice, PO 10 mg/kg, IV 1 mg/kg cassette dose, read-out: Rat F %; for AUC(0-t): PO 10 mg/kg and/or IV 1 mg/kg cassette dose. As for the experimental part:
Integrin agonists as described above were administered to Balb/C mice orally (PO; gavage; 10 mg/kg) and/or intravenously (IV; bolus through tail vein; 1 mg/kg) as a cassette dose with 2 to 3 compounds dosed at a time. A total of twelve mice between age 5-6 weeks with a body weight range of 24-28 g were used. The feeding regimen included 4 h fasting and the feed was provided 2 h after the dosage inoculation and water was provided ad libitum. The blood collection schedule for PO was at 0.25, 0.5, 1, 2, 4, 8,10 and 24 h, and for IV it was at 0.12, 0.25, 0.5, 1, 2, 4, 8 and 24 h post-dose administration under isoflurane anesthesia. For PO dosage, a suspension formulation in 0.2% Tween-80 and 99.8% methyl cellulose (0.5% in water) was prepared in milli-Q water; for IV dosage, a solution formulation in 5% DMSO, 5% Solutol:absolute alcohol (1:1, v/v), and 90% normal saline was prepared.
Dose preparation: For PO dosage, each integrin agonist was wetted with Tween-80 and triturated in a mortar and pestle, and then 0.5% of methyl cellulose was slowly added to make up the final volume for administration. For IV dosage, each integrin agonist was dissolved in DMSO and Solutol:absolute ethanol (1:1, v/v), vortexed, and combined with normal saline.
Methodology for preparation of CC/QC samples: 5 μL of working stock solution was spiked in to 45 μL of blank plasma to obtain the desired concentration in pre-labeled vials. To it was added 250 μL of 100% acetonitrile containing internal standard (tolbutamide: 100 ng/mL) and the sample was vortexed for 2 min followed by centrifugation for 5 min at 20,817×g at 4° C. Supernatant was separated and 5 μL of same was injected on LC-MS/MS.
Data Analysis: Na2EDTA plasma samples were analyzed using a fit-for-purpose LC-MS/MS method.

For another series, the system named is CT26 cells. Briefly: Syngeneic colon cancer mouse model using CT-26 cell line. The class given is in vivo, BALB/c mice. Particulars: Day 21, female Balb/C, 10 mg/kg PO BID. How it is done: Compound 1, compound 8, and compound 12 were dosed at 10 mg/kg BID oral daily for 21 days in a syngeneic colon cancer mouse model using CT-26 cell line. CT26 cells were injected subcutaneously into right flank of female BALB/c mice, aged 7-8 weeks, on Day 1. Tumors were grown for 11 days and dosing was begun and dosed daily for 21 days. Tumor volume/growth (TV=Length×Width 2/2) was measured two times a week. Body weight was measured twice weekly. At the end of study tumor tissue and serum was collected and preserved. Morbidity and Mortality was monitored during the course of study.

The target of series [3] is T2, integrin CD11b/CD18 (K562 CD11b/CD18 cells) (Homo sapiens, UniProt P11215).
T2 construct: host or cells: K562 cells stably transfected with wild-type CD11b/CD18
Briefly: K562 cell adhesion assay with immobilized ligands. Type of series: cell-based. Particulars: for activity level in adhesion assay: compared with the other compounds in the study.
Description: as §1, §2

The mark [4] stands for this setting: Balb/C, IV 1 mg/kg and/or PO 10 mg/kg cassette dose.

In the case of `O=C(O)c1ccc(-c2ccc(/C=C3\OC(=S)N(Cc4ccc(F)cc4)C3=O)o2)cc1` [Compound 8, (Z)-4-(5-((3-(4-Fluorobenzyl)-4-oxo-2-thioxooxazolidin-5-ylidene)methyl)furan-2-yl)benzoic acid], the EC50 in series [1] is 100 to 250 nM. In series [2] (setting [4]), the Tmax stood at 2 h, the half-life is 3.09 h and the Vd was determined as 1.37 L/kg. Further, in series [2], the bioavailability worked out at 8.82%. Also, in the series on CT26 cells, the “% Reduction in Tumor Volume” value worked out at 5.25% and the “% Reduction in Tumor Weight” value is −3.08%.

The compound `O=C(O)c1ccc(-c2ccc(/C=C3\SC(=S)N(Cc4ccc(F)cc4)C3=O)o2)cn1` [Compound 15, (Z)-5-(5-((3-(4-Fluorobenzyl)-4-oxo-2-thioxothiazolidin-5-ylidene)methyl)furan-2-yl)picolinic acid] had an EC50 in series [1] of 100 to 250 nM. Besides, the “activity level in adhesion assay” value in series [3] is “some of the highest activity levels”.

For the compound `O=C(O)c1ccc(-c2ccc(/C=C3\SC(=S)N(Cc4ccccc4)C3=O)o2)cn1` [Compound 12, (Z)-5-(5-((3-benzyl-4-oxo-2-thioxothiazolidin-5-ylidene)methyl)furan-2-yl)picolinic acid], the 50% effective concentration (EC50) in series [1] lay in the range of 100 to 250 nM. In addition, the “activity level in adhesion assay” value in series [3] is reported as “some of the highest activity levels”. Further, in series [2] (setting [4]), the peak level (Cmax) was 55 ng/mL, the Tmax worked out at 0.5 h and the half-life was 1.39 h. Besides, in series [2] (Balb/C), the AUC(0-t) amounted to 176 ng·h/mL. Moreover, in the series on CT26 cells, the “% Reduction in Tumor Volume” value is −4.42% and the “% Reduction in Tumor Weight” value amounted to 11.03%.

On to `O=C(O)c1ccc(-c2cccc(/C=C3\OC(=S)N(Cc4ccc(F)cc4)C3=O)c2)cc1` [Compound 9, (Z)-3′-((3-(4-Fluorobenzyl)-4-oxo-2-thioxooxazolidin-5-ylidene)methyl)-[1,1′-biphenyl]-4-carboxylic acid], for which the EC50 in series [1] is > 10000 nM.

For the compound `O=C(O)c1ccc(-c2cccc(/C=C3\SC(=S)N(Cc4ccc(F)cc4)C3=O)n2)cc1` [Compound 21, (Z)-4-(6-((3-(4-Fluorobenzyl)-4-oxo-2-thioxothiazolidin-5-ylidene)methyl)pyridin-2-yl)benzoic acid], in series [1], the EC50 is 250 to 1000 nM.

Regarding `COC(=O)c1ccc(-c2cccc(/C=C3\SC(=S)N(Cc4ccccc4)C3=O)c2)cc1` [Compound 23, methyl (Z)-3′-((3-benzyl-4-oxo-2-thioxothiazolidin-5-ylidene)methyl)-[1,1′-biphenyl]-4-carboxylate], in series [1], the half-maximal effective concentration (EC50) was > 10000 nM.

`O=C(O)c1ccc(-c2ccc(/C=C3\OC(=S)N(Cc4ccccc4)C3=O)o2)cc1` [Compound 1, (Z)-4-(5-((3-Benzyl-4-oxo-2-thioxooxazolidin-5-ylidene)methyl)furan-2-yl)benzoic acid] returned an EC50 in series [1] of 250 to 1000 nM. The “fold more active in promoting adhesion than imidazolidine compound 4” value in series [3] (relative to compound 4) was “greater than 7 fold”. Further, the “fold more active in promoting adhesion than imidazolidine compound 5” value in series [3] (relative to compound 5) is “greater than 40 fold”. Also, in series [2] (setting [4]), the time of peak concentration (Tmax) came out at 2 h, the half-life was 1.97 h and the Vd is 1.5 L/kg. For the same compound, in series [2] (Balb/C), the area under the curve AUC(0-t) came out at 1060 ng·h/mL. Besides, the bioavailability in series [2] is 18.6%. In the series with CT26 cells, the “% Reduction in Tumor Volume” value is −38.30% and the “% Reduction in Tumor Weight” value is −37.15%.

On to `O=C(O)c1ccc(-c2cccc(/C=C3\SC(=S)N(Cc4ccc(F)cc4)C3=O)c2)cc1` [Compound 20, (Z)-3′-((3-(4-Fluorobenzyl)-4-oxo-2-thioxothiazolidin-5-ylidene)methyl)-[1,1′-biphenyl]-4-carboxylic acid], for which the EC50 in series [1] lay in the range of 1000 to 10000 nM.

`Cc1ccc(CN2C(=O)/C(=C/c3ccc(-c4ccc(C(=O)O)cc4)o3)SC2=S)c(C)c1` [Compound 37, (Z)-4-(5-((3-(2,4-Dimethylbenzyl)-4-oxo-2-thioxothiazolidin-5-ylidene)methyl)furan-2-yl)benzoic acid] came in with an EC50 in series [1] of 1000 to 10000 nM.

Compound `O=C(O)c1ccc(-c2ccc(/C=C3\NC(=S)N(Cc4ccccc4)C3=O)o2)cc1` [Compound 4, (Z)-4-(5-((1-Benzyl-5-oxo-2-thioxoimidazolidin-4-ylidene)methyl)furan-2-yl)benzoic acid] yielded an EC50 in series [1] of 1000 to 10000 nM.

The compound `O=C1/C(=C/c2ccc(-c3ccc(-c4nnn[nH]4)cc3)o2)SC(=S)N1Cc1ccccc1` [Compound 42, (Z)-5-((5-(4-(1H-tetrazol-5-yl)phenyl)furan-2-yl)methylene)-3-benzyl-2-thioxothiazolidin-4-one] returned an EC50 in series [1] of 250 to 1000 nM. For the same compound, in series [2] (setting [4]), the Tmax is 0.5 h, the half-life was 0.77 h and the Vd came to 1.15 L/kg. In series [2] (Balb/C), the AUC(0-t) was 357 ng·h/mL. Besides, in series [2], the bioavailability is 4.1%.

For the compound `O=C(O)c1ccc(-c2ccc(/C=C3\NC(=O)N(Cc4ccccc4)C3=O)o2)cc1` [Compound 3, (Z)-4-(5-((1-Benzyl-2,5-dioxoimidazolidin-4-ylidene)methyl)furan-2-yl)benzoic acid], the EC50 in series [1] is > 10000 nM.

The compound `COC(=O)c1ccc(-c2ccc(/C=C3\SC(=S)N(Cc4ccccc4)C3=O)o2)cn1` [Compound 13, Methyl (Z)-5-(5-((3-benzyl-4-oxo-2-thioxothiazolidin-5-ylidene)methyl)furan-2-yl)picolinate] came in with a half-maximal effective concentration (EC50) in series [1] of 250 to 1000 nM.

In the case of `CCOC(=O)c1ccc(-c2ccc(CN3CC(=S)N(Cc4ccccc4)C3=O)o2)cc1` [Compound 7, Ethyl 4-(5-((3-benzyl-2-oxo-4-thioxoimidazolidin-1-yl)methyl)furan-2-yl)benzoate], in series [1], the half-maximal effective concentration (EC50) is > 10000 nM.

Compound `COc1ccc(CN2C(=O)/C(=C/c3ccc(-c4ccc(C(=O)O)cc4)o3)SC2=S)cc1` [Compound 34, (Z)-4-(5-((3-(4-Methoxybenzyl)-4-oxo-2-thioxothiazolidin-5-ylidene)methyl)furan-2-yl)benzoic acid] displayed a half-maximal effective concentration (EC50) in series [1] of 100 to 250 nM.

In turn, `Cc1cccc(CN2C(=O)/C(=C/c3ccc(-c4ccc(C(=O)O)cc4)o3)SC2=S)c1C` [Compound 31, (Z)-4-(5-((3-(2,3-Dimethylbenzyl)-4-oxo-2-thioxothiazolidin-5-ylidene)methyl)furan-2-yl)benzoic acid] had a 50% effective concentration (EC50) in series [1] of 250 to 1000 nM.

A word on the EC50: it is the concentration at which the effect is half-maximal. The low end stands for higher potency in that assay, the high end for lower potency in that assay. One may read the Tmax as the time from dosing to the highest level. A word on the half-life: it is the time needed for the level to fall by half in the phase considered. A low value points to rapid decline. In general, Cmax refers to the highest concentration seen after dosing. For orientation: AUC(0-t) means the area under the concentration-time curve up to a stated or last time point. Read a high AUC(0-t) as high exposure.

Source of the values: patent publication US20200123146A1, “HETEROCYCLIC INTEGRIN AGONISTS” (GB006, Inc., priority 2016, published 2020).
